This note sets out measurements from PubChem BioAssay AID1996.

In brackets after ≈: the same amount, converted by molar mass. Some results are limits rather than exact numbers.

For this data set the following is noted: buffer; pH 7.4; 200.0 µM.
In general, kinetic solubility refers to the concentration staying in solution when a stock, usually in DMSO, is diluted into the medium. Turning to `O=C(CSC1=NCCN1)Nc1ccccc1[N+](=O)[O-]`, the solubility (kinetic) is more than 42 µg/mL.

Consider `Cc1ccc(NC(=O)COC(=O)c2cc(=O)c3ccccc3o2)c(Br)c1`, for which the kinetic solubility is more than 62.4 µg/mL. For `CCCC1(CCC)NC(=O)N(CC(=O)Nc2ccc3c(c2)OCCO3)C1=O` the value was more than 56.3 µg/mL; for `Cc1cccc(C(=O)NC(=S)N(C)C2CCCCC2)c1`, 35.9 µg/mL (≈ 124 µM). Next, `Cc1cccc(C)c1NC(=O)c1c(O)c2ccccc2[nH]c1=O`: 0.5 µg/mL (≈ 1.62 µM); `C=CCc1c(Cl)nc(C)nc1NCc1ccccc1`: 5.8 µg/mL (≈ 21.2 µM); `COc1ccccc1-c1ccc(/C=N/O)o1`: 3.9 µg/mL (≈ 18 µM). Next, `O=C(COC(=O)c1cccc(N2C(=O)C3CC=CCC3C2=O)c1)c1ccccc1` (configuration not stated): 3.2 µg/mL (≈ 8.22 µM); `NS(=O)(=O)c1cccc(NC(=O)Nc2ccccc2)c1`: more than 43.7 µg/mL.

`O=CN1CCN(C(=O)c2cc3cc(Cl)ccc3[nH]2)CC1` showed a kinetic solubility of 34.9 µg/mL (≈ 120 µM). The compound `CCc1nnc(NC(=O)C2CSC3(C)CCC(=O)N23)s1` (configuration not stated) yielded a kinetic solubility of more than 46.9 µg/mL.

`O=S(=O)(c1ccc(Cl)cc1)N1CCN(c2ncccn2)CC1` yielded a kinetic solubility of 0.9 µg/mL (≈ 2.66 µM). For `CSc1cccc(NC(=O)c2[nH]c(C)c(C(C)=O)c2C)c1` the value was 7.3 µg/mL (≈ 24.1 µM); for `CC1CCCN(c2c([N+](=O)[O-])cc(C(=O)O)cc2[N+](=O)[O-])C1` (configuration not stated), 46.2 µg/mL (≈ 149 µM).

Compound `CC(C)Cc1ccc(S(=O)(=O)Nc2ccccn2)cc1` came in with a solubility (kinetic) of 31.7 µg/mL (≈ 109 µM). Next, `Br.CCCCCCCCn1ccc(=N)cc1`: more than 43.1 µg/mL; `Cc1c(C(=O)CN2CCN(c3ccccc3)CC2)c2ccccc2n1C`: 39.6 µg/mL (≈ 114 µM). For `O=C(NC1CCCc2ccccc21)c1ccc2c(c1)OCO2` (configuration not stated) the value was 11.6 µg/mL (≈ 39.3 µM); for `Cc1cc(NC(=O)COC(=O)c2ccc(C)c(C)c2)no1`, 3.7 µg/mL (≈ 12.8 µM).

As for `Cc1ccccc1C(=O)Nc1cccc(NC(=O)c2ccc(F)cc2)c1`, the solubility (kinetic) amounted to 1.8 µg/mL (≈ 5.17 µM). For `CCOc1ccc(N2C(=O)CC(Cc3cc(C)cc(C)c3)C2=O)cc1` (configuration not stated) the value was 4 µg/mL (≈ 11.9 µM); for `CC(OC(=O)c1ccc2c(c1)S(=O)(=O)c1ccccc1C2=O)C(N)=O` (configuration not stated), 29.3 µg/mL (≈ 81.5 µM). For `S=C(NCc1ccco1)N1CCN(C/C=C/c2ccccc2)CC1` the value was more than 51.2 µg/mL. For `CSc1nsc(SC)c1NC(=O)Nc1ccccc1C` the value was 1 µg/mL (≈ 3.07 µM); for `CN1CCN(C(=O)c2ccc(Cl)cc2)CC1`, more than 35.8 µg/mL.

For the compound `CCN(CC)S(=O)(=O)c1ccc(NCCc2ccccn2)nc1`, the solubility (kinetic) was 49.2 µg/mL (≈ 147 µM). For `CC1=C(C)C(=O)N(C(C)CCc2ccccc2)C1=O` (configuration not stated) the value was 4.4 µg/mL (≈ 17.1 µM); for `CC(=O)Nc1nc(C)c(Oc2cccc(C(F)(F)F)c2)c(=O)[nH]1`, 45.1 µg/mL (≈ 138 µM). For `COC(=O)c1cc(Sc2cccc(Cl)c2Cl)ccn1` the value was 26.3 µg/mL (≈ 83.7 µM); for `Cc1ccc(N2CC(=O)Nc3c(sc4nc(C)cc(C)c34)C2=O)cc1`, 0.6 µg/mL (≈ 1.71 µM). The compound `C=CCN(CC=C)C(=S)Nc1ccc(OC)c(OC)c1` displayed a kinetic solubility of more than 43.9 µg/mL. Next, `COc1ccc2c(C)nc(Nc3nc(-c4ccccc4)cc(=O)[nH]3)nc2c1`: less than 0.2 µg/mL; `CCc1nccn1S(=O)(=O)c1ccccc1[N+](=O)[O-]`: more than 42.2 µg/mL. For `CC(C)Cn1c(N)cc(=O)n(C)c1=O` the value was 22.2 µg/mL (≈ 113 µM); for `COCCNC(=O)CSc1ncnc2sc(-c3ccccc3)cc12`, 1 µg/mL (≈ 2.78 µM); for `COCCn1c(SCC(=O)NC2CCCC2)nnc1-c1ccco1`, more than 52.6 µg/mL.

Turning to `O=C(c1ccc(F)cc1)C(Cc1ccccc1)N1CCCCC1` (configuration not stated), the solubility (kinetic) was 13.1 µg/mL (≈ 42.1 µM). For `Cc1ccc(C(=O)NCCNC(=O)c2ccccn2)cc1` the value was more than 42.5 µg/mL; for `Cc1cccc(OCC(=O)Nc2nccs2)c1C`, 5.1 µg/mL (≈ 19.4 µM).

Regarding `COc1ccc(C(=O)COc2ccccc2C(N)=O)cc1`, the kinetic solubility stood at 31.6 µg/mL (≈ 111 µM). For `Cc1ccc(C(C)NC(=O)c2cccs2)cc1` (configuration not stated) the value was 20.7 µg/mL (≈ 84.4 µM). Next, `O=C(O)C1CCCCN1C(=O)c1cc2c(s1)CCCCC2` (configuration not stated): more than 46.1 µg/mL; `CC(C)(C)c1ccc(/C=C/C(=O)Nc2cccnc2)cc1`: 1 µg/mL (≈ 3.57 µM). As for `CC(=O)Nc1ccc(NC(=O)c2cc([N+](=O)[O-])cc([N+](=O)[O-])c2)cc1`, the kinetic solubility is 7.9 µg/mL (≈ 22.9 µM). Next, `O=C(Cn1c(CO)nc2ccccc21)NCCc1ccc(F)cc1`: 36.7 µg/mL (≈ 112 µM).

`CCOc1ccc(S(=O)(=O)N2CCN(C(=O)c3ccc(C)c(S(=O)(=O)N4CCOCC4)c3)CC2)cc1` registered a solubility (kinetic) of 19.3 µg/mL (≈ 35.9 µM). On to `O=C(CSc1ccccc1)Nc1ccc2sccc2c1`, for which the solubility (kinetic) stood at 0.7 µg/mL (≈ 2.34 µM). Next, `COC(=O)CC1=NN(c2nc3ccccc3s2)C(=O)/C1=C/N(C)C`: more than 51.7 µg/mL; `O=C(CSc1ncnc2sc3c(c12)CCCC3)NC1CCS(=O)(=O)C1` (configuration not stated): 18.6 µg/mL (≈ 46.8 µM); `CC(=O)c1ccc(NC(=O)NC2CCCc3ccccc32)cc1` (configuration not stated): 4.9 µg/mL (≈ 15.9 µM).

Compound `Cc1ccc(OCCC(=O)Nc2ccc3c(c2)OCO3)cc1` displayed a kinetic solubility of 14.8 µg/mL (≈ 49.4 µM).

Take `N#Cc1cc2c(nc1SCC(=O)O)CCCCC2`: the solubility (kinetic) was more than 39.3 µg/mL.
